Experimental data from patent US9475815B2, “Substituted benzothienyl-pyrrolotriazines and uses thereof” (Bayer Intellectual Property GmbH, priority 2012, dated 2016).
Where a name gives a salt, the structure may show the parent alone.

Key:
[1] = molecular target: human FGFR-3 (Homo sapiens (Human), UniProt P22607); assay: FGFR-3 kinase assay (TR-FRET); assay type: biochemical; settings: 10 μM ATP, 15 min pre-incubation with enzyme
[2] = molecular target: human mTOR (Homo sapiens (Human), UniProt P42345); assay: mTOR kinase assay (TR-FRET, for comparative purposes); assay type: biochemical; settings: read-out: mTOR % inhibition @ 1 μM, 1 μM test compound, 40 μM ATP, mean values
Chain of human mTOR (P42345 1360-2549): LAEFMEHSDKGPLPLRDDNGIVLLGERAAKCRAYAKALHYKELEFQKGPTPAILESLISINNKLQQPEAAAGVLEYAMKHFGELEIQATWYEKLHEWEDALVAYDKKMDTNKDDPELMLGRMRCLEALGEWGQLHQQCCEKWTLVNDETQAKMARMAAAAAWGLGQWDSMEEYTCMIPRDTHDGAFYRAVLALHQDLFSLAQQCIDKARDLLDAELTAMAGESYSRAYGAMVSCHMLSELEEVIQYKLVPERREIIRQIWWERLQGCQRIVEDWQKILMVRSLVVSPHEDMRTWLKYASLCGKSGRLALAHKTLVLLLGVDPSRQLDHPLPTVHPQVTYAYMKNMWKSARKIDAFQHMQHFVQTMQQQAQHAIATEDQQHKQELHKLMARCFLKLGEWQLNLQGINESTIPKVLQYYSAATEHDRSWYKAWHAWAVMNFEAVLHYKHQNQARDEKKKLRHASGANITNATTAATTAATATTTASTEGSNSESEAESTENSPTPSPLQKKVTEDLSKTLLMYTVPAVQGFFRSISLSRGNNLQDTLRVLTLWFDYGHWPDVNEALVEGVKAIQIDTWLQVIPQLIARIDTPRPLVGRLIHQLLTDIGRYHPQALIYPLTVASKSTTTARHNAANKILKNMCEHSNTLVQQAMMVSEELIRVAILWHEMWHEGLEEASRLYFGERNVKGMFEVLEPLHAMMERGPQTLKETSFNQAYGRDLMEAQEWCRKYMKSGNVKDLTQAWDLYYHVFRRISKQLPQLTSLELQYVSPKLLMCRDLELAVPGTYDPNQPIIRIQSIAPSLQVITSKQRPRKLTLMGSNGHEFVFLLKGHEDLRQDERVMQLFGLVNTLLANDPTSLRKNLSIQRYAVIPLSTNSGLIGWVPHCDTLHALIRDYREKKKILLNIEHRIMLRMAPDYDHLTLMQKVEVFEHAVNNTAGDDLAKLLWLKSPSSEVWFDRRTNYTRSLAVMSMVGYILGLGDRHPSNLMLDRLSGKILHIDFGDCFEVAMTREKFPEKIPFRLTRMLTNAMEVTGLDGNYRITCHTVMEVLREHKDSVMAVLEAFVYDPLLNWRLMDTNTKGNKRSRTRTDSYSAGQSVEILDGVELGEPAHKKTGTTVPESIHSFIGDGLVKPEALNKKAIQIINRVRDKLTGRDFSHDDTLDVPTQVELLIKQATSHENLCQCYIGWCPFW
Protocol: mTOR inhibitory activity of the compounds of the present invention was quantified employing the TR-FRET based mTOR assay as described in the following paragraphs:
Test compounds were dissolved in DMSO to generate 10 mM stock solutions. These solutions were first 10-fold diluted by 100% DMSO to get 1 mM solutions in 100% DMSO, then 100-fold diluted by 50% DMSO to get 10 μM solutions in 50% DMSO.
(final concentration in the 10 μl assay volume=1 nM) in FRET buffer.
For this, the fluorescence emissions at 495 nm and 520 nm after excitation at 340 nm was measured in an Envision 2104 multilabel reader (Perkin-Elmer).

[3] = molecular target: human FGFR-1 (Homo sapiens, UniProt P11362); assay: FGFR-1 high ATP kinase assay (TR-FRET)
Chain of human FGFR-1 (P11362 22-822 limits assumed): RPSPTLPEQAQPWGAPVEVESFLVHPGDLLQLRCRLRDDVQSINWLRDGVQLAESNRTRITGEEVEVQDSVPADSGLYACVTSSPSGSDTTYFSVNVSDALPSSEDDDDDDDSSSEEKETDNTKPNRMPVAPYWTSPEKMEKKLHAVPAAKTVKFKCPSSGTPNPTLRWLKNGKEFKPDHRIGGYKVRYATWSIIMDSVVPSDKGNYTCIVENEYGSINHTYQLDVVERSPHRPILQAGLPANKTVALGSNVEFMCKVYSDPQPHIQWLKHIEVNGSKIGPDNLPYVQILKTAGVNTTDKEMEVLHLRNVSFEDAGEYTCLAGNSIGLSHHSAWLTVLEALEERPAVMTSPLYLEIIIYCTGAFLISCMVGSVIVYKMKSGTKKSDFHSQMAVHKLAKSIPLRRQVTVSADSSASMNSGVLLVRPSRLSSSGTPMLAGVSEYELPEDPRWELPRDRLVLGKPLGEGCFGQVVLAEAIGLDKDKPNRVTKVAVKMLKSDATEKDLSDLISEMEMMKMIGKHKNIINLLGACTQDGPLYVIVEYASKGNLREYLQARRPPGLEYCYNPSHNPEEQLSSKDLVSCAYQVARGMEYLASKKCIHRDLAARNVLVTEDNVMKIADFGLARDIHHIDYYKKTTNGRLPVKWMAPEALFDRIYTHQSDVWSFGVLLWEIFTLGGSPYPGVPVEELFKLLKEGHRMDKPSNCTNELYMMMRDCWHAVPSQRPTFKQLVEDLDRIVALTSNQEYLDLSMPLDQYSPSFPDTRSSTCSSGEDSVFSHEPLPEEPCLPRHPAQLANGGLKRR

Chain of human FGFR-3 (P22607 397-806): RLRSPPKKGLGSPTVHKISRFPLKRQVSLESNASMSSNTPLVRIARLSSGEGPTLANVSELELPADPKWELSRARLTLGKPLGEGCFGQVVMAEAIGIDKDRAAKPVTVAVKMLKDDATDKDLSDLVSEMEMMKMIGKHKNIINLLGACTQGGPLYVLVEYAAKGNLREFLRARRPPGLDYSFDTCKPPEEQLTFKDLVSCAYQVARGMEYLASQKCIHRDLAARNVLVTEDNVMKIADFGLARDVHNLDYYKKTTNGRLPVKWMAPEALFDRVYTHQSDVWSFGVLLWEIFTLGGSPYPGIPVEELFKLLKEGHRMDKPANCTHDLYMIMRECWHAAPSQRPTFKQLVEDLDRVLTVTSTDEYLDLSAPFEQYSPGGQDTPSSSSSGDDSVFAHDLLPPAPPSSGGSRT

| SMILES | IC50 [1] [nM] | inhibition at 1 µM [2] [%] | IC50 [3] [nM] |
| --- | --- | --- | --- |
| COc1cc(C)cc2cc(-c3cc(COCCN4CCOC4=O)n4ncnc(N)c34)sc12 [Example 116] | 71.5 | 28 | 90.3 |
| COc1cc(C)cc2cc(-c3cc(CN(C)CCC(N)=O)n4ncnc(N)c34)sc12 [Example 67] | 28.4 | 48 | 53.1 |
| COc1cc(C)cc2cc(-c3cc(CN4CCN(C(N)=O)CC4)n4ncnc(N)c34)sc12 [Example 68] | 29.3 | 43.1 | 55 |
| COc1cc(C)cc2cc(-c3cc(Cn4cc(C)nc4C)n4ncnc(N)c34)sc12 [Example 123] | 58 | 47.8 | 28.3 |
| COc1cc(C)cc2cc(-c3cc(CNC4CC4)n4ncnc(N)c34)sc12 [Example 81] | 110 | 44.7 | 93.4 |
| COc1cc(C)cc2cc(-c3cc(CNCCC4CCCN4C)n4ncnc(N)c34)sc12 (stereo not drawn) [Example 65] | 49.5 | 5.9 | 49.1 |
| COc1cc(C)cc2cc(-c3cc(C(=O)N4CCNC(C(N)=O)C4)n4ncnc(N)c34)sc12 (stereo not drawn) [Example 102] | 89.6 | 12.8 | 48.8 |
| COc1cc(C)cc2cc(-c3cc(CN[C@@H](CC(N)=O)C(=O)O)n4ncnc(N)c34)sc12 [Example 92] | 11.7 | 19.9 | 46.2 |
| COc1cc(C)cc2cc(-c3cc(CNC4CCN(C(C)C)CC4)n4ncnc(N)c34)sc12 [Example 80] | 120 | 3 | 93.4 |
| COc1cc(C)cc2cc(-c3cc(CN4CCNC(=O)C4(C)C)n4ncnc(N)c34)sc12 [Example 11, 4-{[4-Amino-5-(7-methoxy-5-methyl-1-benzothiophen-2-yl)pyrrolo[2,1-f][1,2,4]triazin-7-yl]-methyl}-3,3-dimethylpiperazin-2-one] | 146 | 27.8 | 95 |
| COc1cc(C)cc2cc(-c3cc(CN[C@H]4CC[C@@H](N(C)C)CC4)n4ncnc(N)c34)sc12 [Example 87] | 29.1 | 21.9 | 13.2 |
| COc1cc(C)cc2cc(-c3cc(CNCC(C)(C)N4CCOCC4)n4ncnc(N)c34)sc12 [Example 75] | 115 | 18.6 | 74.3 |
| COc1cc(C)cc2cc(-c3cc(CN4CCCN(CCO)CC4)n4ncnc(N)c34)sc12 [Example 59] | 47.7 | 7 | 39.4 |
| COc1cc(C)cc2cc(-c3cc(COC[C@H]4CCCN4)n4ncnc(N)c34)sc12 [Example 110] | 57.4 | 4.9 | 51.6 |
| COc1cc(C)cc2cc(-c3cc(COC4CCOC4)n4ncnc(N)c34)sc12 (stereo not drawn) [Example 113] | 64.7 | 29.7 | 83.1 |
| COc1cc(C)cc2cc(-c3cc(Cn4ccnc4C#N)n4ncnc(N)c34)sc12 [Example 122] | 65.6 | 35.7 | 71.8 |
| COc1cc(C)cc2cc(-c3cc(C(=O)N4CCNC(C)(C)C4)n4ncnc(N)c34)sc12 [Example 103] | 114 | 9.2 | 51.7 |
| COc1cc(C)cc2cc(-c3cc(C(=O)N4CCC[C@@H](N)C4)n4ncnc(N)c34)sc12 [Example 104] | 14.6 | 17.9 | 28.1 |
| COc1cc(C)cc2cc(-c3cc(CNC(C)(C)CN4CCCC4)n4ncnc(N)c34)sc12 [Example 57] | 53.3 | 16.2 | 32.5 |
| COc1cc(Cl)cc2cc(-c3cc(CN4CCNCC4)n4ncnc(N)c34)sc12 [Example 4, 5-(5-Chloro-7-methoxy-1-benzothiophen-2-yl)-7-(piperazin-1-ylmethyl)pyrrolo[2,1-f][1,2,4]-triazin-4-amine trihydrochloride] | 79 | 26.2 | 34.7 |
